From patent US11325937B2, “Glycoside compound and preparation method therefor, composition, application, and intermediate” (SHANGHAI HUTCHISON PHARMACEUTICALS LIMITED, priority 2018, dated 2022)
Like-named read-outs stand apart in the source and are kept apart here.

System: VEGF-A mRNA expression in macrophages (RAW264.7)
Assay: In vitro macrophage experiment: activity of compounds to promote VEGF-A mRNA expression (RT-qPCR)
Type: cell-based
Settings: Mus musculus, read-out: Expression level of VEGF-A mRNA
Source text: 1.1. Specific steps for activity screening: 1-10×10^6 macrophages (RAW264.7) in logarithmic growth phase were transferred to a cell culture plate. The test compounds (Compounds TG-001, TG-002, TG-003, TG-004, TG-005, TG-006, TG-007, TG-008, TG-009, TG-010, TG-011, TG-012, TG-013, TG-014, TG-015, TG-016, TG-017, TG-018, TG-019, TG-020, TG-021, TG-022, TG-023, TG-024, TG-025, TG-026, TG-027, TG-028, TG-029, TG-030, TG-031, TG-032, TG-033, TG-034, TG-035, TG-036, TG-037, TG-045, TG-039, TG-040 TG-041, TG-042, TG-043, TG-044, TG-045, TG-052, TG-053, TG-054, TG-047, TG-048, TG-046, TG-049, TG-050, TG-051, TG-055 and TG-056) were respectively diluted into various concentrations, and separately added to the cell culture plate containing macrophage. The cells were cultured for 3 h in a complete medium (RPMI 1640 medium:fetal bovine serum:tri-resistance screening agent (i.e. penicillin-streptomycin-gentamicin, Beijing Leagene Biotechnology Co., Ltd.)=89:10:1 based on volume) in a cell incubator at 37° C. and 5% CO2. The cells were lyzed by Trizol (Beijing ComWin Biotech Co., Ltd) to extract RNA, and the RNA concentration was measured using a microvolume nucleic acid and protein analyzer (Nanodrop2000c). The required volume V of RNA was calculated according to the RNA concentration, and the RNA reverse transcription reaction system was prepared according to Table 1. Then RNA reverse transcription (cDNA synthesis) (RT Easy™ I (For first-strand cDNA synthesis) Reverse Transcription Kit, Chengdu ForeGene Biotechnology Co., Ltd.) was carried out according to the conditions described in Table 2. The resulting cDNA was used to prepare a fluorescence quantitative PCR reaction solution according to Table 3. The fluorescence quantitative PCR reaction conditions were set according to Table 4, and the fluorescence quantitative PCR reaction (Real time PCR Easy™-SYBR Green Fluorescence Quantification Kit, Chengdu ForeGene Biotechnology Co., Ltd.) was performed using cDNA from the reverse transcription reaction as a template. The relative expression level 2^−ΔΔCt of the target gene was calculated from the Ct value of each sample with the blank control group as a control and β-Actin as an internal reference.
Based on the maximum level of VEGF-A mRNA expression promoted by a drug at a certain concentration, the activity of the drug was determined. The expression level of VEGF-A mRNA in macrophages was defined as 1 when no drug was added. Using a traditional Chinese medicine injection Salvianolate that is used in the treatment of Cardio-cerebrovascular disease and promotes a maximum level of VEGF-A mRNA expression of 6 in macrophages (the results are shown in Table 5) as a judgment standard, the compound promoting a maximum level of VEGF-A mRNA expression of 4 or more in macrophage was a target compound. That is, when the maximum level of VEGF-A mRNA expression in macrophages promoted by the test compound is over 4-fold higher than the expression level of VEGF-A mRNA in macrophages without the addition of the test compound, the test compound was a preliminary target compound promoting angiogenesis.

[1] = 1 μM, RAW264.7 macrophages, 3 h, relative expression 2^-ΔΔCt, no drug = 1
[2] = 0.1 mM, RAW264.7 macrophages, 3 h, relative expression, no drug = 1
[3] = 0.5 mM, RAW264.7 macrophages, 3 h, relative expression, no drug = 1
[4] = 1 mM, RAW264.7 macrophages, 3 h, relative expression, no drug = 1
[5] = 2 mM, RAW264.7 macrophages, 3 h, relative expression, no drug = 1
[6] = 3 mM, RAW264.7 macrophages, 3 h, relative expression, no drug = 1

Row | SMILES | fold induction at 1 µM [1] | fold induction at 100 µM [2] | fold induction at 500 µM [3] | fold induction at 1000 µM [4] | fold induction at 2000 µM [5] | fold induction at 3000 µM [6] | fold induction at 1 µM (RAW264.7, 3 h) | fold induction at 100 µM (RAW264.7, 3 h) | fold induction at 500 µM (RAW264.7, 3 h) | fold induction at 1000 µM (RAW264.7, 3 h) | fold induction at 2000 µM (RAW264.7, 3 h) | fold induction at 3000 µM (RAW264.7, 3 h)
1 | OC[C@H]1O[C@@H](OCCCCc2ccc(O)cc2)[C@H](O)[C@@H](O)[C@@H]1O [TG-023] | 0.16 | 0.55 | 0.71 | 0.5 | 0.19 | 0.71 |  |  |  |  |  | 
2 | COc1ccc(COCCO[C@@H]2O[C@H](CO)[C@@H](O)[C@H](O)[C@H]2O)cc1 [TG-032] |  |  |  |  |  |  | 2.79 | 4.89 | 0.92 | 3.68 | 1.83 | 0.96
3 | CCCCCCCCCCCCCCCCOc1ccc(CCCCO[C@@H]2O[C@H](CO)[C@@H](O)[C@H](O)[C@H]2O)cc1 [TG-043] | 1.16 | 1.52 |  | 3.36 | 4.09 | 4.29 |  |  |  |  |  | 
4 | COc1ccc(CCCCCCO[C@@H]2O[C@H](CO)[C@@H](O)[C@H](O)[C@H]2O)cc1 [TG-006] | 3.86 | 1.92 | 2.48 | 0.7 | 0.48 | 0.44 |  |  |  |  |  | 
5 | OC[C@H]1O[C@@H](OCCCCc2ccc(F)cc2)[C@H](O)[C@@H](O)[C@@H]1O [TG-010] | 0.98 | 0.68 | 0.69 | 1.48 | 5.31 | 9.78 |  |  |  |  |  | 
6 | COc1ccc(CCCCO[C@H]2O[C@H](CO)[C@@H](O)[C@H](O)[C@H]2O)cc1 [TG-046] | 1.86 | 1.96 | 2.14 | 2.27 | 2.25 | 5.32 |  |  |  |  |  | 
7 | OC[C@H]1O[C@@H](OCCCCc2ccc(OCC3CCOCC3)cc2)[C@H](O)[C@@H](O)[C@@H]1O [TG-020] | 0.88 | 0.93 | 2.8 | 3.9 | 2.24 | 2.56 |  |  |  |  |  | 
8 | COc1cc(CCCCO[C@@H]2O[C@H](CO)[C@@H](O)[C@H](O)[C@H]2O)cc(OC)c1 [TG-002] | 1.71 | 1.68 | 1.88 | 1.21 | 0.44 | 0.73 |  |  |  |  |  | 
9 | COc1ccc(CCCCO[C@H]2O[C@@H](CO)[C@H](O)[C@@H](O)[C@@H]2O)cc1 [TG-029] | 2.21 | 1.51 | 1.02 | 1.54 | 2.6 | 2.3 |  |  |  |  |  | 
10 | COc1ccc(NCCCO[C@@H]2O[C@H](CO)[C@@H](O)[C@H](O)[C@H]2O)cc1 [TG-037] |  |  |  |  |  |  | 1.3 | 0.62 | 1.77 | 1.69 | 1.8 | 3.23
11 | OC[C@H]1O[C@@H](OCCCCc2ccc(OCc3cccnc3)cc2)[C@H](O)[C@@H](O)[C@@H]1O [TG-017] | 1.54 | 1.29 | 2.55 | 5.9 | 2.29 | 2.48 |  |  |  |  |  | 
12 | COc1ccc(CCCCO[C@@H]2O[C@H](CO)[C@H](O)[C@H](O)[C@H]2O)cc1 [TG-030] | 0.43 | 0.32 | 0.09 | 0.19 | 0.19 | 0.37 |  |  |  |  |  | 
13 | COc1ccc(CCCCO[C@@H]2O[C@H](CO)[C@@H](O[C@@H]3OC(CO)[C@H](O)[C@H](O)[C@H]3O)[C@H](O)[C@H]2O)cc1 (some centres unmarked) [TG-045] | 0.62 | 0.99 | 0.62 | 0.73 | 1.78 | 0.35 |  |  |  |  |  | 
14 | COc1ccc(CCCCCO[C@@H]2O[C@H](CO)[C@@H](O)[C@H](O)[C@H]2O)cc1 [TG-005] | 0.91 | 0.36 | 2.64 | 1.15 | 1.3 | 2.39 |  |  |  |  |  | 
15 | OC[C@H]1O[C@@H](OCCCCc2ccc(OCc3ccccc3F)cc2)[C@H](O)[C@@H](O)[C@@H]1O [TG-050] | 1.27 | 2.81 | 1.85 | 2.16 | 1.74 | 15.1 |  |  |  |  |  | 
16 | OC[C@H]1O[C@@H](OCCCCc2ccc(OCc3cccc(F)c3)cc2)[C@H](O)[C@@H](O)[C@@H]1O [TG-027] | 1.66 | 6.36 | 3.83 | 3.93 | 1.07 | 0.43 |  |  |  |  |  | 
17 | CCOc1ccc(CCCCO[C@@H]2O[C@H](CO)[C@@H](O)[C@H](O)[C@H]2O)cc1 [TG-024] | 1.82 | 1.14 | 1.64 | 4.86 | 8.38 | 4.32 |  |  |  |  |  | 
18 | OC[C@H]1O[C@@H](OCCCCc2ccc(OCc3ccc(C(F)(F)F)cc3)cc2)[C@H](O)[C@@H](O)[C@@H]1O [TG-026] | 1.44 | 6.85 | 7.92 | 8.13 | 7.92 | 8.16 |  |  |  |  |  | 
19 | COc1ccc(CN(CCO[C@@H]2O[C@H](CO)[C@@H](O)[C@H](O)[C@H]2O)C(=O)OC(C)(C)C)cc1 [TG-033] |  |  |  |  |  |  | 0.95 | 1.87 | 38.9 | 3.76 | 0.99 | 0.04
20 | COc1cccc(CCCCO[C@@H]2O[C@H](CO)[C@@H](O)[C@H](O)[C@H]2O)c1 [TG-004] | 0.9 | 0.4 | 0.73 | 1.11 | 4.29 | 2.66 |  |  |  |  |  | 
21 | OC[C@H]1O[C@@H](OCCCCc2ccc(OCC3CCCCC3)cc2)[C@H](O)[C@@H](O)[C@@H]1O [TG-016] | 3.09 | 1 | 1.34 | 1.54 | 2.77 | 17.1 |  |  |  |  |  | 
22 | COc1ccc(CNCCO[C@@H]2O[C@H](CO)[C@@H](O)[C@H](O)[C@H]2O)cc1 [TG-036] |  |  |  |  |  |  | 1.19 | 1.39 | 0.32 | 1.09 | 0.43 | 1.75
23 | CC(C)Oc1ccc(CCCCO[C@@H]2O[C@H](CO)[C@@H](O)[C@H](O)[C@H]2O)cc1 [TG-038] | 0.79 | 1.06 | 0.96 | 1.71 | 1.32 | 1.29 |  |  |  |  |  | 
